Reference: patent publication US20080280933A1, “BENZIMIDAZOLYL COMPOUNDS” (priority 2006, published 2008)
Like-named read-outs stand apart in the source and are kept apart here.

Biological target: T1, mGluR2 receptor (metabotropic glutamate receptor 2) (Homo sapiens, UniProt Q14416)
T1 construct: expressed in transfected cells
Assay: mGluR2 Potentiator Screen, FLIPR, EC10-EC20 glutamate challenge
Assay type: cell-based
Conditions: read-out: EC50
Method in brief: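 HEK cells stably co-expressing mGluR2 and Gα15, kept glutamine-free overnight, were loaded with Fluo-4 plus probenecid and GPT/pyruvate. Compounds (top 10 μM) were added ≥30 min before an EC10–EC20 glutamate challenge. Peak FLIPR fluorescence ratios were curve-fitted, excluding points above maximal effect, with maxima from on-plate standards.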

[1] = mGluR2 potentiator screen, Table 7

T1 sequence (Q14416 19-872, species assumed): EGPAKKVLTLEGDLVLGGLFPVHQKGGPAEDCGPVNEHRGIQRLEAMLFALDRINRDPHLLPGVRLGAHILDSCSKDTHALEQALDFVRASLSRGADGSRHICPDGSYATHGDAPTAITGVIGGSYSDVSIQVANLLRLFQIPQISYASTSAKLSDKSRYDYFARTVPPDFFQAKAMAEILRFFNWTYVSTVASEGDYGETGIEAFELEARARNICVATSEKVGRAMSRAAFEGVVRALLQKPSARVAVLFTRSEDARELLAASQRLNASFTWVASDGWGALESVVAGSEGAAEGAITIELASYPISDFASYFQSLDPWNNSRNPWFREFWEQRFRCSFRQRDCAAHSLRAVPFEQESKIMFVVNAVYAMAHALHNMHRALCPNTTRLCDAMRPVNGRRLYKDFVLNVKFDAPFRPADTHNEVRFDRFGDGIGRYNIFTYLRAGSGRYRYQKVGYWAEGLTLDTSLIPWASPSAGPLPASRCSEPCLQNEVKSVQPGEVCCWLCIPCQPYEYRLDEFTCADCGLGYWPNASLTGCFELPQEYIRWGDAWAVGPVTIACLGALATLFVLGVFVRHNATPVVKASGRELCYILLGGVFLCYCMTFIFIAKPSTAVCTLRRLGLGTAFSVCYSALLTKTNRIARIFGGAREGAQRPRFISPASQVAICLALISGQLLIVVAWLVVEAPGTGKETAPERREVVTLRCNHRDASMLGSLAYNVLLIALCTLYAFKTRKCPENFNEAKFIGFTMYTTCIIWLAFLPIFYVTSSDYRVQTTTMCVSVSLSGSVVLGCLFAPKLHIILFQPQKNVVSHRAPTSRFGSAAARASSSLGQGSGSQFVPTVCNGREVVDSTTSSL

| EC50 [1] [nM] | EC50 [nM] | Compound |
| --- | --- | --- |
|  | 74.1 | C#CCOc1ccc(Cl)cc1C1CCN(Cc2nc3ccccc3n2CCF)CC1 [compound 236] |
|  | 302 | C#CCOc1ccc(Cl)cc1C1CCN(Cc2nc3ccccc3n2CF)CC1 [compound 237] |
|  | 78.1 | C#CCOc1ccc(Cl)cc1C1CCN(Cc2nc3ccccc3n2C)CC1 [compound 238] |
|  | 79 | C#CCOc1ccc(Cl)cc1C1CCN(Cc2nc3ccccc3n2CCOC)CC1 [compound 239] |
|  | 146 | COc1ccccc1C1CCN(Cc2nc3ccccc3n2CCF)CC1 [compound 240] |
|  | 217 | FCCn1c(CN2CCC(c3ccccc3F)CC2)nc2ccccc21 [compound 241] |
|  | 301 | FCCn1c(CN2CCC(c3ccc(C(F)(F)F)cc3)CC2)nc2ccccc21 [compound 242] |
|  | 1260 | FCCn1c(CN2CCC(c3ccccc3C(F)(F)F)CC2)nc2ccccc21 [compound 243] |
|  | 484 | COc1ccccc1C1CCN(Cc2nc3ccccc3n2C2CC2)CC1 [compound 244] |
|  | 3350 | FC(F)(F)c1ccccc1C1CCN(Cc2nc3ccccc3n2C2CC2)CC1 [compound 245] |
|  | 418 | COCCn1c(CN2CCC(c3ccc(C(F)(F)F)cc3)CC2)nc2ccccc21 [compound 246] |
|  | 821 | FC(F)(F)c1ccc(C2CCN(Cc3nc4ccccc4n3C3CC3)CC2)cc1 [compound 247] |
|  | 320 | COCCn1c(CN2CCC(c3ccccc3OC)CC2)nc2ccccc21 [compound 248] |
|  | 251 | COCCn1c(CN2CCC(c3ccccc3F)CC2)nc2ccccc21 [compound 249] |
|  | 545 | COCCn1c(CN2CCC(c3ccccc3C(F)(F)F)CC2)nc2ccccc21 [compound 250] |
|  | 1340 | Fc1ccccc1C1CCN(Cc2nc3ccccc3n2C2CC2)CC1 [compound 251] |
|  | 225 | FCn1c(CN2CCC(c3ccccc3F)CC2)nc2ccccc21 [compound 252] |
|  | 116 | FCn1c(CN2CCC(c3ccccc3F)CC2)nc2ccccc21 [compound 253] |
|  | 62.4 | COc1ccccc1C1CCN(Cc2nc3ccccc3n2CF)CC1 [compound 254] |
|  | 164 | FCn1c(CN2CCC(c3ccc(C(F)(F)F)cc3)CC2)nc2ccccc21 [compound 255] |
|  | 422 | FCn1c(CN2CCC(c3ccccc3C(F)(F)F)CC2)nc2ccccc21 [compound 256] |
|  | 109 | Cn1c(CN2CCC(c3ccccc3C(F)(F)F)CC2)nc2ccccc21 [compound 257] |
|  | 80.5 | COc1ccccc1C1CCN(Cc2nc3cc(F)c(F)cc3n2C)CC1 [compound 258] |
|  | 468 | Cn1c(CN2CCC(c3ccccc3F)CC2)nc2cc(F)c(F)cc21 [compound 259] |
|  | 422 | Cn1c(CN2CCC(c3ccc(C(F)(F)F)cc3)CC2)nc2cc(F)c(F)cc21 [compound 260] |
|  | 2310 | Cn1c(CN2CCC(c3ccccc3C(F)(F)F)CC2)nc2cc(F)c(F)cc21 [compound 261] |

| EC50 [1] [nM] | EC50 [nM] | Compound |
| --- | --- | --- |
|  | 242 | COc1ccccc1C1CCN(Cc2nc3cc(Br)ccc3n2C)CC1 [compound 263] |
|  | 1440 | Cn1c(CN2CCC(c3ccccc3O)CC2)nc2ccccc21 [compound 265] |
|  | 3350 | COc1ccccc1C1CCN(Cc2nc3c(C#N)cccc3n2C)CC1 [compound 266] |
|  | 249 | Cc1cccc2c1nc(CN1CCC(c3ccccc3F)CC1)n2C [compound 267] |
|  | 1710 | Cn1c(CN2CCC(c3ccccc3F)CC2)nc2c(C#N)cccc21 [compound 268] |
|  | 445 | Cn1c(CN2CCC(c3ccccc3F)CC2)nc2cc(Br)ccc21 [compound 269] |
|  | 838 | COc1ccccc1C1CCN(Cc2nc3c(Cl)cccc3n2C)CC1 [compound 270] |
|  | 21.1 | COc1ccccc1C1CCN(Cc2nc3c(F)cccc3n2C)CC1 [compound 271] |
|  | 79.7 | Cc1ccc2c(c1)nc(CN1CCC(c3ccccc3F)CC1)n2C [compound 273] |
|  | 318 | Cn1c(CN2CCC(c3ccccc3F)CC2)nc2ccc(Br)cc21 [compound 274] |
|  | 44.6 | COc1ccc(-c2ccc3nc(CN4CCC(c5ccccc5F)CC4)n(C)c3c2)cn1 [compound 277] |
|  | 176 | Cn1c(CN2CCC(c3ccccc3F)CC2)nc2cc(-c3ccccc3)ccc21 [compound 280] |
|  | 1510 | COc1ccccc1C1CCN(Cc2nc3cc(N)ccc3n2C)CC1 [compound 281] |
|  | 41.6 | COc1ccccc1C1CCN(Cc2nc3cc(C)ccc3n2C)CC1 [compound 282] |
|  | 90.8 | COc1ccccc1C1CCN(Cc2nc3cc(C#N)ccc3n2C)CC1 [compound 283] |
|  | 39.4 | COc1ccccc1C1CCN(Cc2nc3cc(F)ccc3n2C)CC1 [compound 284] |
|  | 49.3 | COc1ccccc1C1CCN(Cc2nc3cc(Cl)ccc3n2C)CC1 [compound 285] |
|  | 4620 | COCn1c(CN2CCC(c3ccccc3F)CC2)nc2ccccc21 [compound 286] |
|  | 1900 | COCn1c(CN2CCC(c3ccc(C(F)(F)F)cc3)CC2)nc2ccccc21 [compound 287] |
|  | > 9880 | Cn1c(CN2CCC(c3ccccc3)CCC2=O)nc2ccccc21 (stereo not shown) [compound 289] |
|  | 5720 | Cn1c(CN2CCC(c3ccc(C(F)(F)F)cc3)CCC2=O)nc2ccccc21 (stereo not shown) [compound 290] |
|  | 143 | COc1ccccc1C1CCN(Cc2nc3ccccc3n2C)CC1C (stereo not shown) [compound 292] |
|  | 850 | COc1ccccc1C1CCN(Cc2nc3cc(F)c(F)cc3n2C)CC1C (stereo not shown) [compound 293] |
|  | 734 | COc1ccccc1C1CCN(Cc2nc3ccccc3n2CF)CC1C (stereo not shown) [compound 294] |
|  | 1740 | OCCn1c(CN2CCC(c3ccccc3F)CC2)nc2ccccc21 [compound 295] |
|  | 6120 | Cn1c(CN2CC[C@@H]3c4c(Br)ccc(Cl)c4CC[C@H]3C2)nc2ccccc21 [compound 299] |

Second part, the compound before the results:

| Compound | EC50 [1] [nM] | EC50 [nM] |
| --- | --- | --- |
| CC1CC1COc1ccc(Cl)cc1C1CCN(Cc2nc3ccccc3n2C)CC1 (stereo not shown) [compound 199] | 390 |  |
| CC1CC1COc1ccc(Cl)cc1C1CCN(Cc2nc3ccccc3n2CCF)CC1 (stereo not shown) [compound 200] | 1550 |  |
| COCCn1c(CN2CCC(c3cc(Cl)ccc3OCC3CC3C)CC2)nc2ccccc21 (stereo not shown) [compound 201] | 623 |  |
| Clc1ccc(OCC2CCOC2)c(C2CCN(Cc3nc4ccccc4n3C3CC3)CC2)c1 (stereo not shown) [compound 202] | 2880 |  |
| Cn1c(CN2CCC(c3cc(Cl)ccc3OCC3CCOC3)CC2)nc2ccccc21 (stereo not shown) [compound 203] | 712 |  |
| FCn1c(CN2CCC(c3cc(Cl)ccc3OCC3CCOC3)CC2)nc2ccccc21 (stereo not shown) [compound 204] | 3610 |  |
| COCCn1c(CN2CCC(c3cc(Cl)ccc3OCC3CCOC3)CC2)nc2ccccc21 (stereo not shown) [compound 205] | 3350 |  |
| Clc1ccc(OCC2CCCO2)c(C2CCN(Cc3nc4ccccc4n3C3CC3)CC2)c1 (stereo not shown) [compound 206] | 2600 |  |
| Cn1c(CN2CCC(c3cc(Cl)ccc3OCC3CCCO3)CC2)nc2ccccc21 (stereo not shown) [compound 207] | 666 |  |
| FCn1c(CN2CCC(c3cc(Cl)ccc3OCC3CCCO3)CC2)nc2ccccc21 (stereo not shown) [compound 208] | 4130 |  |
| COCCn1c(CN2CCC(c3cc(Cl)ccc3OCC3CCCO3)CC2)nc2ccccc21 (stereo not shown) [compound 209] | 1700 |  |
| FCCn1c(CN2CCC(c3cc(Cl)ccc3OCC3CCCO3)CC2)nc2ccccc21 (stereo not shown) [compound 210] | 1040 |  |
| CC1(COc2ccc(Cl)cc2C2CCN(Cc3nc4ccccc4n3CF)CC2)COC1 [compound 211] | 8220 |  |
| CC1(COc2ccc(Cl)cc2C2CCN(Cc3nc4ccccc4n3CCF)CC2)COC1 [compound 212] | 10500 |  |
| Clc1ccc(OCC2CCCCO2)c(C2CCN(Cc3nc4ccccc4n3C3CC3)CC2)c1 (stereo not shown) [compound 214] | 2010 |  |
| FCn1c(CN2CCC(c3cc(Cl)ccc3OCC3CCCCO3)CC2)nc2ccccc21 (stereo not shown) [compound 215] | 1570 |  |
| Cn1c(CN2CCC(c3cc(Cl)ccc3OCC3CCCCO3)CC2)nc2ccccc21 (stereo not shown) [compound 216] | 534 |  |
| FCCn1c(CN2CCC(c3cc(Cl)ccc3OCC3CCCCO3)CC2)nc2ccccc21 (stereo not shown) [compound 217] | 1180 |  |

| Compound | EC50 [1] [nM] | EC50 [nM] |
| --- | --- | --- |
| COCCn1c(CN2CCC(c3cc(Cl)ccc3OCC3CCCCO3)CC2)nc2ccccc21 (stereo not shown) [compound 218] | 1550 |  |
| CCCOc1ccc(Cl)cc1C1CCN(Cc2nc3ccccc3n2C)CC1 [compound 220] | 216 |  |
| CCCOc1ccc(Cl)cc1C1CCN(Cc2nc3ccccc3n2CF)CC1 [compound 221] | 413 |  |
| CCCOc1ccc(Cl)cc1C1CCN(Cc2nc3ccccc3n2CCF)CC1 [compound 222] | 248 |  |
| CCCOc1ccc(Cl)cc1C1CCN(Cc2nc3ccccc3n2CCOC)CC1 [compound 223] | 233 |  |
| CCOc1ccc(Cl)cc1C1CCN(Cc2nc3ccccc3n2C)CC1 [compound 224] | 4260 |  |
| CCOc1ccc(Cl)cc1C1CCN(Cc2nc3ccccc3n2C2CC2)CC1 [compound 225] |  | 999 |
| CCOc1ccc(Cl)cc1C1CCN(Cc2nc3ccccc3n2CF)CC1 [compound 226] |  | 637 |
| CCOc1ccc(Cl)cc1C1CCN(Cc2nc3ccccc3n2CCF)CC1 [compound 227] |  | 210 |
| CCOc1ccc(Cl)cc1C1CCN(Cc2nc3ccccc3n2CCOC)CC1 [compound 228] |  | 185 |
| COc1ccc(Cl)cc1C1CCN(Cc2nc3ccccc3n2C2CC2)CC1 [compound 229] |  | 357 |
| COCCn1c(CN2CCC(c3cc(Cl)ccc3OC)CC2)nc2ccccc21 [compound 230] |  | 209 |
| COc1ccc(Cl)cc1C1CCN(Cc2nc3ccccc3n2C)CC1 [compound 231] |  | 115 |
| COc1ccc(Cl)cc1C1CCN(Cc2nc3ccccc3n2CF)CC1 [compound 232] |  | 396 |
| COc1ccc(Cl)cc1C1CCN(Cc2nc3ccccc3n2CCF)CC1 [compound 233] |  | 264 |
| COc1ccc(Cl)cc1C1CCN(Cc2nc3c(Br)cccc3n2C)CC1 [compound 234] |  | 1310 |
| C#CCOc1ccc(Cl)cc1C1CCN(Cc2nc3ccccc3n2C2CC2)CC1 [compound 235] |  | 258 |
| Cn1c(CN2CCC3(CC2)COc2ccccc23)nc2ccccc21 [compound 262] |  | 1170 |
